Reference: ChEMBL document CHEMBL2177019, “Carbamate derivatives of indolines as cholinesterase inhibitors and antioxidants for the treatment of Alzheimer's disease” (J Med Chem, 2012)
The source made the active and inactive calls. The calls are words filed in the database; no cut-off is given here.

Assays:
H9c2 [1] = assay: Prevention of apoptosis in rat H9c2 cells assessed as protection against oxidative stress-induced cytotoxicity at 100 nM […] by Alamar blue assay; assay type: functional
[2] = Selectivity ratio of IC50 for equine BuChE to IC50 for bovine AChE
[3] = Cytotoxicity against rat H9c2 cells assessed as cell viability in absence of H2O2; assay type: cell-based; parameters: concentration or dose not given beside the values; conditions: read-out: Activity
Acetylcholinesterase = target: T1, Acetylcholinesterase (Bos taurus, UniProt P23795); assay: Inhibition of bovine AChE after 120 mins by Ellman's method
T1 sequence (P23795 whole entry): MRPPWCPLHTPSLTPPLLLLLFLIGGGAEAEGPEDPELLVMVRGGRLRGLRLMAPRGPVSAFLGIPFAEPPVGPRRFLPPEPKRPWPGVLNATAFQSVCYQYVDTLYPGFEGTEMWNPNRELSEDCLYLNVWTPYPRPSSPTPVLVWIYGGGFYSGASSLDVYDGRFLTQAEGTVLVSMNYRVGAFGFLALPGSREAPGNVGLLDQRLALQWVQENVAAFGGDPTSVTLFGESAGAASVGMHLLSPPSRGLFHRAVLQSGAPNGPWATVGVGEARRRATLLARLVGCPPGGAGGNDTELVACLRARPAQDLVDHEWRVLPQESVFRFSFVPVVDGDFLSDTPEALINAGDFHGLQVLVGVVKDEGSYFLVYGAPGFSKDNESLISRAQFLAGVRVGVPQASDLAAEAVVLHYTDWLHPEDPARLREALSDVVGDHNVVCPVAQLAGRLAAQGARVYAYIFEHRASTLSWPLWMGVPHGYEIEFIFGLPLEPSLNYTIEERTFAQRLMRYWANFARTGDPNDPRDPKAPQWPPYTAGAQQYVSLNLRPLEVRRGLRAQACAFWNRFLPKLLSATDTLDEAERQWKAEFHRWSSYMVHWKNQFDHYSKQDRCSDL

[4] = Antioxidant activity assessed as scavenging of glucose oxidase-generated H2O2 and hydroxyl radicals by chemiluminescence assay; assay type: functional
Butyrylcholinesterase = Butyrylcholinesterase (Equus caballus, UniProt Q9N1N9); assay: Inhibition of equine BuChE after 120 mins by Ellman's method
Chain of Butyrylcholinesterase (Q9N1N9 whole entry): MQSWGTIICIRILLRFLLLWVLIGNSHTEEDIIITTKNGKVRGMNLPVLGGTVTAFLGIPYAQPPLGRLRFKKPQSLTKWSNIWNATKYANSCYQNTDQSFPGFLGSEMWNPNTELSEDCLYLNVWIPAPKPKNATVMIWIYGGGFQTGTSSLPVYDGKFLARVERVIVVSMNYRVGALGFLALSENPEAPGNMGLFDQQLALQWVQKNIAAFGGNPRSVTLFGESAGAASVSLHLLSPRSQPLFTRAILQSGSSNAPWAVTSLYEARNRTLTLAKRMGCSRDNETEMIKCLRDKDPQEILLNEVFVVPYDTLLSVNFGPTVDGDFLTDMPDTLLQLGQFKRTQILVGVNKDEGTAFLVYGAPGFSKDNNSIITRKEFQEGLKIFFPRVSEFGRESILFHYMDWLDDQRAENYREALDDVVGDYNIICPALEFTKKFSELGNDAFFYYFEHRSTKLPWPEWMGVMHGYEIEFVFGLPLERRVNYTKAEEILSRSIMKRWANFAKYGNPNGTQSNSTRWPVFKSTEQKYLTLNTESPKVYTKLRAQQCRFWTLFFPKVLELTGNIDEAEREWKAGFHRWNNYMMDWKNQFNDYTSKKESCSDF

[5] = Antioxidant activity assessed as scavenging of morpholino sydononimine based nitric oxide release by chemiluminescence assay; assay type: functional
[6] = Antioxidant activity of the compound assessed as scavenging of hydroxyl radical by chemiluminometric method; assay type: functional
[7] = Antioxidant activity of the compound assessed as scavenging of peroxynitrite by chemiluminometric method; assay type: functional
H9c2 [8] = assay: Prevention of apoptosis in rat H9c2 cells assessed as reduction in fall of mitochondrial membrane potential at 100 nM after 1 hr; assay type: functional; parameters: scale not given: the % may be the effect or the level left
[9] = Antioxidant activity of the compound assessed as DHR radical scavenging activity at 10 uM by fluorescence assay; assay type: functional
[10] = test system: Radical scavenging activity; assay: Antioxidant activity of the compound assessed as DPPH radical scavenging at 10 uM after 30 secs by spectrophotometry; assay type: functional
[11] = Stability in human plasma assessed as compound hydrolysis at 37 degC within 90 mins; assay type: ADME, cell-free; conditions: read-out: Drug degradation
[12] = Chemical stability in MeCN/water solution at 25 degC; assay type: physicochemical; conditions: buffer
Liver = assay: Metabolic stability in mouse liver microsomes; assay type: ADME, Microsome
Liver microsomes = assay: Metabolic stability in human liver microsomes; assay type: ADME, Microsome
H9c2 [13] = assay: Prevention of apoptosis in rat H9c2 cardiomyocytes assessed as protection against oxidative stress-induced cytotoxicity at 1 pM to 1 nM after 1 hr by Alamar blue assay; assay type: functional

SMILES	Activity (H9c2 [1])	Ratio IC50 [2]	viability [3]	IC50 (Acetylcholinesterase)	IC50 [4]	IC50 (Butyrylcholinesterase)	IC50 [5]	also measured
CCN(C)C(=O)Oc1cccc2c1C(CCC(=O)O)CN2 (stereo not drawn)	inactive	0.016	93.4%	19 µM	1.59 µM	0.3 µM	–	–
CN(C)C(=O)Oc1cccc2c1CCN2.Cl	46.8%	1.08	–	1.2 µM	0.77 µM	1.3 µM	–	–
CCN(C)C(=O)Oc1cccc([C@H](C)N(C)C)c1 [RIVASTIGMINE]	–	–	–	0.62 µM	–	–	–	–
COC(=O)CCC1CN(C)c2cc(OC(=O)N(C)c3ccc(OC)cc3)ccc21.Cl (stereo not drawn)	33.3%	–	106%	17.4 µM	2.24 µM	372 µM	–	–
COc1ccc2[nH]cc(CCNC(C)=O)c2c1 [MELATONIN]	–	–	–	–	95.8 µM	–	1020 µM	IC50 [6]: 537 µM; IC50 [7]: 127 µM
CC(=O)N[C@@H](CS)C(=O)O [ACETYLCYSTEINE]	25.2%	–	–	–	–	–	–	Activity (H9c2 [8]): 20%
CN1CC(CCC(=O)O)c2ccc(O)cc21 (stereo not drawn)	–	–	–	–	0.84 µM	–	3.25 µM	Activity [9]: 66.3%
COC(=O)CCC1CNc2cc(O)ccc21.Cl (stereo not drawn)	50%	–	–	–	1.34 µM	–	1.38 µM	Activity [10]: 28.2%; Activity [9]: 52.1%; Activity (H9c2 [8]): 87%
CCN(C)C(=O)Oc1cccc2c1C(CCC(=O)OC)CN2.CS(=O)(=O)O (stereo not drawn)	–	–	–	–	–	–	–	metabolised at […] [11]: 40%; Stability [12]: 9 days; Stability (Liver): Unstable; Stability (Liver microsomes): Unstable
CCN(C)C(=O)Oc1cccc2c1C(CCC(=O)OC)CN2.Cl (stereo not drawn)	73%	–	99.9%	7.4 µM	1.46 µM	0.3 µM	4.55 µM	–
CCN(C)C(=O)Oc1cccc2c1C(CCC(=O)O)CN2C.Cl (stereo not drawn)	57.4%	0.078	106%	124 µM	1.64 µM	9.7 µM	–	Activity (H9c2 [13]): 43%
CCN(C)C(=O)Oc1cccc2c1C(CCC(=O)OC)CN2C (stereo not drawn)	inactive	0.11	97.3%	58.7 µM	3.13 µM	6.8 µM	–	–
CCCCN(C)C(=O)Oc1ccc2c(c1)N(C)CC2CCC(=O)OC (stereo not drawn)	–	0.55	–	122 µM	6.27 µM	66.8 µM	–	–
CCN(C)C(=O)Oc1cccc2c1CCN2CCC(=O)OC	–	–	–	–	0.3 µM	0.7 µM	8.49 µM	Activity [10]: 27.8%
CCN(C)C(=O)Oc1cccc2c1C(CCC(N)=O)CN2.Cl (stereo not drawn)	55.2%	0.14	96%	62 µM	2.39 µM	8.5 µM	–	–
COC(=O)CCC1CN(C)c2cccc(O)c21 (stereo not drawn)	–	–	–	–	0.45 µM	–	–	Activity [9]: 15.4%
COC(=O)CCC1CNc2cccc(OC(=O)N(C)c3ccc(OC)cc3)c21.Cl (stereo not drawn)	43.1%	3.8	84.7%	1.2 µM	19 µM	4.6 µM	3.18 µM	Activity [10]: 30.4%
CCN(C)C(=O)Oc1cccc2c1NCC2CCC(=O)OC (stereo not drawn)	–	0.00012	–	61.6 µM	–	0.008 µM	–	–
COC(=O)CCC1CN(C)c2cccc(OC(=O)N(C)c3ccc(OC)cc3)c21 (stereo not drawn)	inactive	> 2.4	107%	246 µM	15.3 µM	> 600 µM	–	–
CCN(C)C(=O)Oc1ccc2c(c1)NCC2CCC(=O)OC.Cl (stereo not drawn)	58.5%	–	100%	55.2 µM	1.45 µM	3.9 µM	2.36 µM	Activity (H9c2 [8]): 77%
CCN(C)C(=O)Oc1ccc2c(c1)N(CCC(=O)OC)CC2	–	–	–	–	0.22 µM	6.8 µM	2.18 µM	–
C#CCN[C@@H]1CCc2ccc(OC(=O)N(C)CC)cc21 [LADOSTIGIL]	58.5%	0.06	–	30.3 µM	–	0.48 µM	–	Activity (H9c2 [8]): 32%
CCN(C)C(=O)Oc1cccc2c1C(CCN)CN2 (stereo not drawn)	–	0.5	–	–	0.07 µM	0.2 µM	2.13 µM	Activity [10]: 36.3%
